In PMC7419507, “In vitro Cas9-assisted editing of modular polyketide synthase genes to produce desired natural product derivatives” (Nature Communications, 2020):
“And” between values parts separate entries of the source, which are not always exact repeats. Equal entries are not always repeated.

Assays:
Format in all cases: cell-based
FKBP12 and mTOR = target: T1, FKBP12 and mTOR (Homo sapiens, UniProt P42345+P62942); assay: Fluoppi analysis: induction of FKBP12-mTOR complex formation in transfected HeLa cells; details: for Foci intensity: raw data, one replicate per line
T1 construct: host or cells: HeLa cells
T1 sequence (P42345 2025-2114 limits assumed): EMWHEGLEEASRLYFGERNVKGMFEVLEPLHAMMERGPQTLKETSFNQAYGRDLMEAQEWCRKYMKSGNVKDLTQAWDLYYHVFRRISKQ
T1 sequence (P62942 whole entry): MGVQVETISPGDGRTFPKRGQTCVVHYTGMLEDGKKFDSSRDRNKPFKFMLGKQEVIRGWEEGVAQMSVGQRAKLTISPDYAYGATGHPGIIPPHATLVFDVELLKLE
Experimental: Fluoppi harbours a tetrameric fluorescent protein hAG tag and an oligomeric assembly helper Ash tag to create detectable fluorescent foci in cells when there are interactions between two proteins fused to each tag[32].
HeLa cells were maintained in DMEM (Fujifilm Wako, Osaka, Japan) supplemented with 10% FBS (Thermo Fisher Scientific, MA, USA) and 1% of Penicillin-Streptomycin (Thermo Fisher Scientific) in a humidified incubator with 5% CO2 at 37 °C. Harvested cells were plated at 1 × 10^6 cells/well in 6-well plate and incubated for 6 h. Then each 1.25 µg of phAG-mTOR and pAsh-FKBP12 (Medical and Biological Laboratories Co., Ltd., Aichi, Japan) was co-transfected with Lipofectamine 2000 reagent (Thermo Fisher Scientific) overnight. Next day, transfected cells were harvested and seeded in 384-well optical-bottom microplate (PerkinElmer, MA, USA) at a density of 3000 cells/well. After the 24 h incubation at 37 °C, cells were treated with different concentrations of compounds for 1 h. Cells were then fixed with 4% paraformaldehyde and stained with 1 µg/ml of Hoechst33342 (Thermo Fisher Scientific). Cell images of 9 visual fields/well were acquired with ×20 objective lens in Opera Phenix High-Content Screening System (PerkinElmer) and analysed by Harmony4.9 software (PerkinElmer). Because protein-protein interactions are quantified by measuring the aggregation of fluorescent elements in foci, fluorescent intensity in foci was normalised by total fluorescent intensity in each cell. EC50 values were calculated using TIBCO Spotfire 10.3 software (PerkinElmer).

T lymphoma Jurkat cells = assay: Cytotoxicity assay (CellTiter-Glo, 72 h), Jurkat; details: raw data (replicates)
Experimental: (§1) Jurkat cells were cultured in RPMI1640 medium supplemented with 10% foetal bovine serum, penicillin (50 U/ml), streptomycin (50 μg/ml), and Glutamax. SKOV-3 cells were cultured in DMEM medium supplemented with 10% fetal bovine serum, penicillin (50 U/ml), and streptomycin (50 μg/ml). MESO-1 cells were cultured in RPMI1640 medium supplemented with 10% fetal bovine serum, penicillin (50 U/ml), and streptomycin (50 μg/ml). All cell lines were seeded in a 384-well plate at a density of 1000 cells/well in 20 μl of media and incubated at 37 °C in a humidified incubator with 5% CO2. After 4 h, 2-fold dilution samples resolved in DMSO were added to the cell culture at the concentration of 0.5% (0.1 μl) and incubated for 72 h. Cell viabilities were measured using a CellTiter-Glo luminescent cell viability assay and EnVision multilabel plate reader.

[1] = test system: human ovarian adenocarcinoma SKOV-3 cells; assay: Cytotoxicity assay (CellTiter-Glo, 72 h), SKOV-3; details: raw replicate data
Experimental: as §1

[2] = test system: malignant pleural mesothelioma MESO-1 cells; assay: Cytotoxicity assay (CellTiter-Glo, 72 h), MESO-1; details: raw replicate data
Experimental: as §1

[3] = test system: Jurkat, SKOV-3 and MESO-1 cells; assay: Cytotoxicity assay, statements for all tested cell lines together; details: against the tested cell lines (Jurkat, SKOV-3, MESO-1)
Experimental: as §1

COC1CC2CCC(C)C(O)(O2)C(=O)C(=O)N2CCCCC2C(=O)OC(C(C)CC2CCC(O)C(OC)C2)CC(O)CC(=O)C(C)CC(C)C=CC=CC=C1C (stereo not shown) [Compound 11]
PPI-inducing (binding enhancing) activity between FKBP12 and mTOR compared with rapamycin (1), in words (FKBP12 and mTOR; Fluoppi): completely lost the ability to induce the formation of FKBP12-mTOR complex | Foci intensity (FKBP12 and mTOR; conc 9.53674e-5 uM): 0.02286 and 0.01106 and 0.01492 | Foci intensity (FKBP12 and mTOR; conc 0.000190735 uM): 0.009983 and 0.01574 and 0.02887 | Foci intensity (FKBP12 and mTOR; conc 0.00038147 uM): 0.01899 and 0.01621 and 0.01221 | Foci intensity (FKBP12 and mTOR; conc 0.000762939 uM): 0.002009 and 0.003868 and 0.01862 | Foci intensity (FKBP12 and mTOR; conc 0.00152588 uM): 0.02126 and 0.01678 and 0.003092 | Foci intensity (FKBP12 and mTOR; conc 0.00305176 uM): 0.0138 and 0.01691 and 0.01576 | Foci intensity (FKBP12 and mTOR; conc 0.00610352 uM): 0.03172 and 0.01801 and 0.0222 | Foci intensity (FKBP12 and mTOR; conc 0.012207 uM): 0.01093 and 0.01362 and 0.01381 | Foci intensity (FKBP12 and mTOR; conc 0.0244141 uM): 0.01964 and 0.01491 and 0.01835 | Foci intensity (FKBP12 and mTOR; conc 0.0488281 uM): 0.004003 and 0.01339 and 0.01507 | Foci intensity (FKBP12 and mTOR; conc 0.0976562 uM): 0.01375 and 0.009337 and 0.02775 | Foci intensity (FKBP12 and mTOR; conc 0.195312 uM): 0.0177 and 0.02519 and 0.008414 | Foci intensity (FKBP12 and mTOR; conc 0.390625 uM): 0.01709 and 0.006803 and 0.01525 | Foci intensity (FKBP12 and mTOR; conc 0.78125 uM): 0.01284 and 0.02644 and 0.03084 | Foci intensity (FKBP12 and mTOR; conc 1.5625 uM): 0.02173 and 0.02485 and 0.03636 | Foci intensity (FKBP12 and mTOR; conc 3.125 uM): 0.02309 and 0.03313 and 0.02928 | Foci intensity (FKBP12 and mTOR; conc 6.25 uM): 0.01525 and 0.02728 and 0.02945 | Foci intensity (FKBP12 and mTOR; conc 12.5 uM): 0.02884 and 0.0389 and 0.01245 | Foci intensity (FKBP12 and mTOR; conc 25 uM): 0.03878 and 0.02312 and 0.004037 | Foci intensity (FKBP12 and mTOR; conc 50 uM): 0.02187 and 0.0201 and 0.02169 | Jurkat viability (%) (T lymphoma Jurkat cells; conc 9.53674e-5 uM): 99.6% and 105.7% and 104.8% | Jurkat viability (%) (T lymphoma Jurkat cells; conc 0.000190735 uM): 102.5% and 104.1% and 102.4% | Jurkat viability (%) (T lymphoma Jurkat cells; conc 0.00038147 uM): 103.5% and 109.4% and 98.8% | Jurkat viability (%) (T lymphoma Jurkat cells; conc 0.000762939 uM): 99.9% and 101.1% and 97.3% | Jurkat viability (%) (T lymphoma Jurkat cells; conc 0.00152588 uM): 100.9% and 100.4% and 103.9% | Jurkat viability (%) (T lymphoma Jurkat cells; conc 0.00305176 uM): 102.0% and 103.4% and 101.1% | Jurkat viability (%) (T lymphoma Jurkat cells; conc 0.00610352 uM): 100.0% and 104.2% and 103.2% | Jurkat viability (%) (T lymphoma Jurkat cells; conc 0.012207 uM): 106.8% and 106.3% and 106.1% | Jurkat viability (%) (T lymphoma Jurkat cells; conc 0.0244141 uM): 104.8% and 107.2% and 106.6% | Jurkat viability (%) (T lymphoma Jurkat cells; conc 0.0488281 uM): 97.2% and 96.3% and 106.5% | Jurkat viability (%) (T lymphoma Jurkat cells; conc 0.0976562 uM): 106.1% and 104.1% and 111.0% | Jurkat viability (%) (T lymphoma Jurkat cells; conc 0.195312 uM): 100.5% and 100.4% and 103.3% | Jurkat viability (%) (T lymphoma Jurkat cells; conc 0.390625 uM): 100.9% and 100.4% and 105.6% | Jurkat viability (%) (T lymphoma Jurkat cells; conc 0.78125 uM): 94.7% and 91.5% and 97.0% | Jurkat viability (%) (T lymphoma Jurkat cells; conc 1.5625 uM): 93.8% and 86.6% and 86.2% | Jurkat viability (%) (T lymphoma Jurkat cells; conc 3.125 uM): 76.9% and 80.2% and 77.8% | Jurkat viability (%) (T lymphoma Jurkat cells; conc 6.25 uM): 68.8% and 66.4% and 70.4% | Jurkat viability (%) (T lymphoma Jurkat cells; conc 12.5 uM): 58.6% and 56.1% and 57.5% | Jurkat viability (%) (T lymphoma Jurkat cells; conc 25 uM): 45.9% and 41.4% and 49.3% | Jurkat viability (%) (T lymphoma Jurkat cells; conc 50 uM): 12.3% and 11.6% and 15.7% | SKOV3 viability (%) ([1]; conc 9.53674e-5 uM): 103.0% and 111.8% and 102.7% | SKOV3 viability (%) ([1]; conc 0.000190735 uM): 100.4% and 96.2% and 95.8% | SKOV3 viability (%) ([1]; conc 0.00038147 uM): 103.1% and 104.5% and 105.0% | SKOV3 viability (%) ([1]; conc 0.000762939 uM): 97.9% and 100.1% and 100.0% | SKOV3 viability (%) ([1]; conc 0.00152588 uM): 106.4% and 105.2% and 101.9% | SKOV3 viability (%) ([1]; conc 0.00305176 uM): 98.6% and 97.0% and 99.4% | SKOV3 viability (%) ([1]; conc 0.00610352 uM): 109.3% and 103.3% and 106.5% | SKOV3 viability (%) ([1]; conc 0.012207 uM): 99.6% and 97.7% and 101.2% | SKOV3 viability (%) ([1]; conc 0.0244141 uM): 103.3% and 106.1% and 104.6% | SKOV3 viability (%) ([1]; conc 0.0488281 uM): 98.5% and 100.3% and 98.3% | SKOV3 viability (%) ([1]; conc 0.0976562 uM): 105.4% and 104.9% and 104.3% | SKOV3 viability (%) ([1]; conc 0.195312 uM): 95.0% and 97.7% and 100.1% | SKOV3 viability (%) ([1]; conc 0.390625 uM): 104.0% and 107.6% and 105.3% | SKOV3 viability (%) ([1]; conc 0.78125 uM): 100.0% and 99.8% and 98.6% | SKOV3 viability (%) ([1]; conc 1.5625 uM): 98.3% and 102.6% and 98.7% | SKOV3 viability (%) ([1]; conc 3.125 uM): 98.0% and 99.6% and 88.9% | SKOV3 viability (%) ([1]; conc 6.25 uM): 95.1% and 93.6% and 91.3% | SKOV3 viability (%) ([1]; conc 12.5 uM): 92.5% and 90.6% and 91.1% | SKOV3 viability (%) ([1]; conc 25 uM): 91.0% and 92.9% and 94.1% | SKOV3 viability (%) ([1]; conc 50 uM): 83.8% and 79.2% and 82.0% | MESO1 viability (%) ([2]; conc 9.53674e-5 uM): 103.9% and 103.5% and 98.5% | MESO1 viability (%) ([2]; conc 0.000190735 uM): 96.6% and 99.4% and 97.9% | MESO1 viability (%) ([2]; conc 0.00038147 uM): 98.3% and 99.6% and 101.3% | MESO1 viability (%) ([2]; conc 0.000762939 uM): 105.2% and 96.5% and 100.7% | MESO1 viability (%) ([2]; conc 0.00152588 uM): 101.4% and 100.3% and 96.4% | MESO1 viability (%) ([2]; conc 0.00305176 uM): 100.9% and 90.0% and 104.4% | MESO1 viability (%) ([2]; conc 0.00610352 uM): 103.9% and 99.7% and 97.3% | MESO1 viability (%) ([2]; conc 0.012207 uM): 100.4% and 97.8% and 98.7% | MESO1 viability (%) ([2]; conc 0.0244141 uM): 97.0% and 101.2% and 106.3% | MESO1 viability (%) ([2]; conc 0.0488281 uM): 98.5% and 98.3% and 96.0% | MESO1 viability (%) ([2]; conc 0.0976562 uM): 105.6% and 104.1% and 98.8% | MESO1 viability (%) ([2]; conc 0.195312 uM): 98.6% and 98.7% and 91.4% | MESO1 viability (%) ([2]; conc 0.390625 uM): 103.9% and 97.5% and 98.1% | MESO1 viability (%) ([2]; conc 0.78125 uM): 94.8% and 90.3% and 84.8% | MESO1 viability (%) ([2]; conc 1.5625 uM): 93.0% and 93.7% and 91.6% | MESO1 viability (%) ([2]; conc 3.125 uM): 84.8% and 80.8% and 88.7% | MESO1 viability (%) ([2]; conc 6.25 uM): 89.0% and 88.1% and 84.7% | MESO1 viability (%) ([2]; conc 12.5 uM): 82.3% and 77.8% and 85.2% | MESO1 viability (%) ([2]; conc 25 uM): 76.7% and 80.1% and 74.6% | MESO1 viability (%) ([2]; conc 50 uM): 57.9% and 55.6% and 52.8% | Concentration at which cytotoxic activities were shown [3]: over 10 µM
